Results reported in US20190142737A1, “SUBLINGUAL SPRAY FORMULATION COMPRISING DIHYDROARTEMESININ” (LondonPharma Ltd., priority 2009, published 2019).
Read-outs that look alike come from different tables or passages of the source.

What was measured:
[1] = animals, cited from earlier work
[2] = Impurities of artemether in solvent systems after eight weeks storage (HPLC); format: physicochemical; conditions: in contact with water, ethanol, or propellants for aerosol formulations
Source text: Tables 1 and 2 show impurities present in Artemether API, and artemether in three solvent systems: 20% ethanol+80% propellant; 50% ethanol+50% propellant; 100% ethanol; and a medium chain triglyceride, in this case, the triglyceride sold under the registered trade mark Miglyol® 810. Miglyol® is a medium chain triglyceride containing saturated C8 and C10 fatty acids, typically between 65-80% of caprylic acid (C8:0) and 20-35% of capric acid (C10:0). The propellant used in these test was 1,1,1,2 tetrafluoroethane, sold under the registered trade mark Zephex® 134a. Similar results were obtained for the propellants butane, Zephex® 227 (1,1,1,2,3,3,3 heptafluoropropane) and for a mixture of butane and propane. […] In all other cases, the impurities are at levels that exceed those permitted under the ICH Harmonised Tripartite Guidelines for Impurities in New Drug Products without specific identification or further toxicological examination.

[3] = humans, cited from earlier work

Stability of artemether (in words) [2]: not stable
Structure (SMILES): CO[C@H]1O[C@@H]2O[C@@]3(C)CC[C@H]4[C@H](C)CC[C@@H]([C@H]1C)[C@@]24OO3 [artemether]
Bioavailability ([1]; intramuscular injection): 54%
Bioavailability ([1]; oral administration): 19-35%
Bioavailability ([3]; intramuscular route): 25%
Bioavailability ([3]; intrarectal route): 35%
